{"source": "patent US10577406B2", "about": "“FKBP-L polypeptides and uses in angiogenesis-mediated disorders” (ALMAC DISCOVERY LIMITED, priority 2006, dated 2020)", "key": {"HMEC-1 [1]": {"test_system": "HMEC-1", "assay": "in vitro migration assay (wound closure / wound scrape), recombinant protein or peptides added to medium", "format": "cell-based, Human", "details": "wound scrape", "protocol": "(§1) The in vitro migration assay used in these studies is a modified version of the method described by Ashton et al (1999). HMEC-1 were plated into individual chambers on a glass slide and grown to 90% confluence overnight. The medium was removed and the monolayer wounded. The monolayer was re-supplemented with fresh medium and the required volume of recombinant full length his-tagged FKBP-L protein (SEQ ID NO: 1) was added to give the required final concentration.\nThe monolayers were incubated for 7 hours after exposure to recombinant FKBP-L protein and then fixed in 4% PBS buffered paraformaldehyde. The extent of “wound” closure was blindly assessed microscopically by an independent investigator and quantified using a calibrated eyepiece graticule (1 mm/100 μm graduation) at 20× magnification (Olympus BX 50). The extent of closure in the FKBP-L treated slides was compared to time matched sham treated controls and the % inhibition of wound closure compared to time matched controls calculated.\nThe following studies were performed to determine the effect of a full length His-tagged recombinant FKBP-L protein on the wound closure assay measured as a function of time. Again, the in vitro migration assay used in these studies is a modified version of the method described by Ashton et al (1999). HMEC-1 were plated into individual chambers on a glass slide and grown to 90% confluence overnight. The medium was removed and the monolayer wounded. The monolayer was re-supplemented with fresh medium and the required volume of full length his-tagged recombinant FKBP-L (i.e., SEQ ID NO: 1) added to give the required final concentration 750 ngml^−1.\nSlides were removed at fixed time points until complete closure of the wound, then fixed in 4% PBS buffered paraformaldehyde. The extent of “wound” closure was blindly assessed microscopically by an independent investigator and quantified using a calibrated eyepiece graticule (1 mm/100 μm graduation) at 20× magnification (Olympus BX 50). The extent of closure in the FKBP-L treated slides was compared to time matched sham treated controls and the % inhibition of wound closure compared to time matched controls calculated.\nas §1, with “al. (1999) see supra.” for “al (1999).”, “the following peptides” for “recombinant full length his-tagged FKBP-L protein (SEQ ID NO: 1)”, “achieve a dose range from 10^−14-10^−6 M.” for “give the required final concentration.”\nThe monolayers were incubated for 7 h and then fixed in 4% PBS buffered paraformaldehyde. The extent of “wound” closure was blindly assessed microscopically by an independent investigator and quantified using a calibrated eyepiece graticule (1 mm/100 μm graduation) at 20× magnification (Olympus BX 50). The extent of closure in the FKBP-L treated slides was compared to time matched sham treated controls and the % inhibition of wound closure compared to time matched controls calculated.\nThe in vitro migration assay used in these studies is a modified version of the method described by Ashton et al. (1999) see supra. HMEC-1 were plated into individual chambers on a glass slide and grown to 90% confluence overnight. The medium was removed and the monolayers wounded. The monolayer was re-supplemented with fresh medium and the required volume of each peptide (i.e., peptides 1-17, SEQ ID NOS: 12-28; Table 4 below) was added to give the required final concentration (10^−14-10^−6 M).\nThe monolayers were incubated for 24 h and then fixed in 4% PBS buffered paraformaldehyde. The extent of “wound” closure was blindly assessed microscopically by an independent investigator and quantified using a calibrated eyepiece graticule (1 mm/100 μm graduation) at 20× magnification (Olympus BX 50). […]"}, "[2]": {"test_system": "DU145 human prostate tumor xenograft", "assay": "prostate cancer xenograft model, intratumoral injection of plasmid complexes", "format": "in vivo, severe combined immunodeficient mice", "details": "twice weekly", "protocol": "Du145 (prostate carcinoma) cells were obtained from Cancer Research UK and cultured in RPMI 1640 medium (Invitrogen) supplemented with 10% foetal calf serum. All cell lines were grown as monolayers, incubated at 37° C. under 5% CO2.\nThe FKBP-L/pcDNA3.1 plasmid was constructed by excision of the FKBPL cDNA using BamH1 (polynucleotide SEQ ID NO:31) from pUC18 and then directional ligation of FKBP-L into the BamHI restriction site of pcDNA3.1 (Invitrogen) as described in Example 1. The endostatin plasmid (for use as a postive anti-angiogenic control) hEndo XV/pcDNA3.1, was constructed by digesting the pBLAST hENDO XV plasmid (InVivoGen) with Hpa1 (Promega) and EcoV (Invitrogen) to release the hEndo XV insert. The hEndo XV insert was ligated directionally into the ECoRV restriction site of pcDNA3.1 (Invitrogen).\nNineteen (19) male immunocompromised (severe combined immunodeficient) mice were used (Harlan). The mice were aclimatized and caged in groups of 5 or less in a barrier care facility. Du145 (prostate carcinoma) cells were cultured as previously described. Subconfluent cells were harvested and the cell concentration was adjusted to 5×10^7 cells/ml in PBS. The dorsum of each mouse was shaved. […] The tumors were measured before each treatment. Tumor volume was calculated as: 4/3 πr^3 (where r=½ GMP and GMP=^3√{square root over (Length×Breadth×Height)})."}, "L132 cells": {"test_system": "L132 cells", "assay": "cDNA microarray analysis of gene expression after FKBP-L antisense", "format": "cell-based", "details": "8 h after exposure, vs lipofectin only", "protocol": "Total RNA was isolated from L132 cells, 8 h after exposure to FKBP-L antisense (FKBP-L antisense: 5′ ATG GCC AGG CTC CCG CTC 3′) (SEQ ID NO: 40) or lipofectin only as a control. Poly A+mRNA was extracted from total RNA samples using the Qiagen Oligotex kit (Qiagen, UK), according to the manufacturer's instructions. These mRNA samples (800 ng per sample) were sent to Incyte Genomics, USA where a UniGEM 2.0 microarray analysis was conducted.\nIncyte's Lifearray chips enable the interrogation of up to 10,000 genes simultaneously, resulting in the comparison of gene expression levels in two different samples. Briefly, a standard reverse transcription reaction was carried out to convert both mRNA samples to cyanine-dye-labelled cDNA. mRNA from L132 cells treated with FKBP-L antisense oligonucleotides after 8 h was used to generate a Cyanine 3 (green) labelled probe and mRNA from L132 cells treated with lipofectin only after 8 hours was used to produce a Cyanine 5 (red) labelled probe. The two fluorescent probe samples were simultaneously applied to a single microarray chip containing numerous cDNA probes immobilised on a solid support in specific locations, where they competitively reacted with the arrayed cDNA molecules. Following incubation, the microarray was rinsed in a series of baths to ensure the removal of any unhybridised sample. The microarray was then captured as an image that was acquired using a scanner for fluorescent signal detection. This scanner generated data on the intensity of each spot by excitation of the fluorochromes on the array. Each element of the chip was scanned for the Cy3 (green) and then the Cy5 (red) fluorescent label to create electronic images for both dye channels. The final array images were analysed using the Incyte GEMTools software package."}, "HMEC-1 [3]": {"test_system": "HMEC-1", "format": "cell-based, Human", "details": "18 h", "protocol": "(§2) The in vitro tubule formation assay used in these studies is a modified version of the method described by Ashton et al (1999). In brief, assays were conducted using BD BioCoat™ Matrigel™ Matrix Thin Layer 24-well Multiwell Plates (BD Discovery Labware, Oxford, UK). The Matrigel™ was rehydrated with 500 μl MCDB-131 serum free medium and incubated at 37° C. for 30 minutes. Excess medium was removed and HMEC-1 were seeded at a density of 1×10^5 and the plates incubated at 37° C. under 5% CO2/95% air for 1 hour.\n(§3) Increasing concentrations of the recombinant FKBP-L protein (SEQ ID NO: 1) were added to each individual well in triplicate (250-1000 ngml^−1) and the plate was incubated for a further 18 hours. The degree of tubule formation between adjacent HMEC-1 cells was assessed in each well in five fields of view, by counting the number of cell to cell contacts between different HMEC-1 cells in the designated area. An independent investigator assessed each well and the FKBP-L treated wells were compared to sham treated controls.\nas §2, with “al.” for “al”, “min.” for “minutes.”, “h. Increasing concentrations of FKBP-L 24mer (SEQ ID NO: 10) and 1-57mer (SEQ ID NO: 6) from 10^−14-10^−6 M were used.” for “hour.”\nas §3, with “The” for “Increasing concentrations of the recombinant FKBP-L protein (SEQ ID NO: 1) were added to each individual well in triplicate (250-1000 ngml^−1) and the”, “h.” for “hours.”"}, "rat aortic ring": {"test_system": "rat aortic ring", "format": "cell-based, Male Wistar rats", "protocol": "Male Wistar rats were euthanised and the thoracic aorta was aseptically removed and sectioned into 1 cm thick rings. The rings were washed ten times in sterile medium to remove any bacteria and embedded into Matrigel on 24 well plates. The wells were supplemented with 2 ml of medium and increasing concentrations of full-length His-tagged recombinant FKBP-L protein (SEQ ID 1). The plate was incubated for 8 days and post incubation the Matrigel and rings were fixed in 4% PBS buffered paraformaldehyde and stored in PBS. The extent of vessel development was blindly assessed microscopically by an independent investigator and quantified using a calibrated eyepiece graticule (1 mm/100 μm graduation) at 20× magnification (Olympus BX 50). The extent of vessel length, maximum vessel length and number of vessels in each field of view was measured and compared to time matched sham controls and the percent (%) inhibition calculated. Male Wistar rats were euthanised and the thoracic aorta was aseptically removed and sectioned into 1 cm thick rings. The rings were washed ten times in sterile medium to remove any bacteria and embedded into Matrigel on 24 well plates. The wells were supplemented with 2 ml of medium and increasing concentrations of FKBP-L 24mer (SEQ ID NO: 10) and FKBP-L 1-57mer (SEQ ID NO: 6) and recombinant FKBP-L (SEQ ID NO:1). The plate was blindly assessed by an independent investigator and quantified using a calibrated eyepiece graticule (1 mm/100 μm graduation) at 20× magnification (Olympus BX 50). The extent of vessel length, maximum vessel length and number of vessels in each field of view was measured and compared to time matched sham controls and the % inhibition calculated. In order to determine whether the FKBP-L 24mer exerted a permanent or static effect on endothelial cell sprouting the rat aortic ring assay was used. Male Wistar rats were euthanised and the thoracic aorta was aseptically removed and sectioned into 1 cm thick rings. The rings were washed ten times in sterile medium to remove any bacteria and embedded into Matrigel on 24 well plates. The wells were supplemented with 2 ml of medium. The plates were incubated for up to 15 days. Each day the Matrigel rings were photographed and returned to their incubator. Two further experiments were carried out: (A) addition of FKBP-L 24mer to the medium after the vessels had grown for seven days; and (B) addition of FKBP-L 24mer to the medium at the initial embedding stage, with subsequent removal after seven days and replacement with fresh medium for a further seven days. The extent of vessel development was quantified using a calibrated eyepiece graticule (1 mm/100 μm graduation) at 20× magnification (Olympus BX 50), and measured electronically using Lucia imaging software. Vessel length was measured and compared to time matched sham controls and the percent (%) inhibition calculated."}, "HMEC-1 cells": {"test_system": "HMEC-1 cells", "assay": "MTT assay of cell viability/proliferation", "details": "24mer 10^−5-10^−10M, 1-57mer 10^−9M and 10^−10M; 24 hours and 48 hours", "quoted_text": "An MTT assay was used to measure cell viability/proliferation.\nAn MTT assay was used to measure cell viability and/or proliferation. Briefly, HMEC-1 cells were seeded (2.5×10^3) in 96 well plates and allowed to attach for 5 h. The cells were treated with FKBP-L 24mer (SEQ ID NO: 10) (10^−5-10^−10M), 1-57mer (SEQ ID NO: 6) (10^−9M and 10^−10M) or medium (control).\nPost incubation the cells were exposed to a 5 mgml^−1 solution of 3-(-4,5-dimethylthiazol-2-yl) 2,5 diphenyl tetrazolium (MTT) for 4 h. The cells were aspirated and 200 μl of DMSO added to reduce the salt and induce a colour change."}}, "note": "Ends that are not written are not given here.", "data": [{"substance": "RQQPRDPPTETLELEVSPD-OH (listed as Homo sapiens) [Pep 12]", "values": [{"measurement": "activity relative to the FKBP-L 24mer", "setting": "HMEC-1 [1]; 24 h", "value": "about the same as the FKBP-L 24mer"}]}, {"substance": "endostatin", "values": [{"measurement": "tumor appearance", "setting": "[2]", "value": "evidence of a necrotic center"}]}, {"substance": "5′ ATG GCC AGG CTC CCG CTC 3′ (antisense ATGGCCAGGCTCCCGCTC; listed as DNA, chemistry not given here; listed as Homo sapiens) [FKBP-L anti-sense oligonucleotides]", "values": [{"measurement": "Fold Increase (↑) or Decrease (↓): Annexin 2", "setting": "L132 cells; decrease ↓", "value": "↓ 1.6 Fold"}, {"measurement": "Fold Increase (↑) or Decrease (↓): CYR61", "setting": "L132 cells; decrease ↓", "value": "↓ 2.4 Fold"}, {"measurement": "Fold Increase (↑) or Decrease (↓): Tubulin α", "setting": "L132 cells; decrease ↓", "value": "↓ 1.5 Fold"}, {"measurement": "Fold Increase (↑) or Decrease (↓): Tubulin β", "setting": "L132 cells; decrease ↓", "value": "↓ 1.5 Fold"}, {"measurement": "Fold Increase (↑) or Decrease (↓): Tubulin γ", "setting": "L132 cells; decrease ↓", "value": "↓ 1.6 Fold"}, {"measurement": "Fold Increase (↑) or Decrease (↓): MMP-like 1", "setting": "L132 cells; increase ↑", "value": "↑ 1.5 Fold"}, {"measurement": "Fold Increase (↑) or Decrease (↓): Microtubule associated protein 1B", "setting": "L132 cells; increase ↑", "value": "↑ 1.6 Fold"}, {"measurement": "Fold Increase (↑) or Decrease (↓): PI3K", "setting": "L132 cells; increase ↑", "value": "↑ 3.1 Fold"}, {"measurement": "Fold Increase (↑) or Decrease (↓): ROCK", "setting": "L132 cells; increase ↑", "value": "↑ 1.6 Fold"}, {"measurement": "Fold Increase (↑) or Decrease (↓): Rho GTPase activating protein-", "setting": "L132 cells; increase ↑", "value": "↑ 2.0 Fold"}, {"measurement": "Fold Increase (↑) or Decrease (↓): oligophrenin 1", "setting": "L132 cells; increase ↑", "value": "↑ 1.7 Fold"}]}, {"substance": "METPPVNTIGEKDTSQPQQEWEKNLRENLDSVIQIRQQPRDPPTETLELEVSPDPAS [FKBP-L 1-57mer]", "values": [{"measurement": "EC50", "setting": "HMEC-1 [3]", "value": 0.0007, "unit": "nM"}, {"measurement": "IC50", "setting": "rat aortic ring", "value": 0.53, "unit": "nM"}, {"measurement": "potency compared with the full length recombinant protein on a mole/mole basis", "setting": "HMEC-1 [1]; 7 h", "value": "increased potency"}, {"measurement": "effect on proliferation of HMEC-1 cells compared to time-matched controls", "setting": "HMEC-1 cells", "value": "neither of the peptides had any significant effect"}]}]}
